This note sets out measurements from ChEMBL document CHEMBL1201862, “PubChem BioAssay data set” (2004).

Test systems include 786-0; ACHN; HT-29; IGROV-1; KM12; LOX IMVI; M14; Malme-3M; NCI-H226; OVCAR-3; OVCAR-4; RPMI-8226; RXF 393; SF-268; SF-295; SF-539; SNB-75; T47D; TK-10.
Test in all cases: NCI anticancer screen, dose series, 48 h

“And” between values parts separate entries of the source, which are not always exact repeats. Equal entries are not always repeated.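 Results reflect a 48-hour exposure of cells in 96-well plates to compound at five concentrations. Abbreviation: GI50, concentration required for 50% inhibition of growth.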 The source made the active and inactive calls. Cut-off read from the data, not from the text of the source: active = GI50 up to about 1.1 µM and inactive = higher.

For `NC(Cc1cc(Br)c(O)c(Br)c1)C(=O)O` (stereo not drawn), the GI50 in the assay with 786-0, with ACHN, in the assay with HT-29, in the assay with IGROV-1, in the assay with KM12 and in the assay on LOX IMVI was > 100 µM (inactive) throughout. For the same compound, the GI50 in the assay with M14, with Malme-3M, with NCI-H226, in the assay on OVCAR-3, with OVCAR-4 and in the assay on RPMI-8226 was > 100 µM (inactive) each time. Further, the GI50 in the assay on RXF 393, in the assay with SF-268, with SF-295, with SF-539, with SNB-75 and with T47D was > 100 µM (inactive) throughout. In addition, in the assay with TK-10, the GI50 was > 100 µM (inactive).
Turning to `O=c1[nH]c2cc([N+](=O)[O-])c(Nc3c4ccccc4nc4ccccc34)c([N+](=O)[O-])c2[nH]1`, the GI50 in the assay on 786-0 is 2.39 µM (inactive); in the assay with ACHN it was 1.98 µM (inactive); in the assay on HT-29, 1.98 µM (inactive); with IGROV-1 it was 0.238 µM (active); in the assay with KM12 it was 2.26 µM (inactive); with LOX IMVI, 2.37 µM (inactive). In addition, the GI50 in the assay on M14 was 2.12 µM (inactive); in the assay with Malme-3M, 1.77 µM (inactive); in the assay on NCI-H226 it was 3.13 µM (inactive); in the assay with OVCAR-3 it was 2.58 µM (inactive); in the assay on OVCAR-4, 3.07 µM (inactive); in the assay with RPMI-8226 it was 2.55 µM (inactive). Moreover, the GI50 in the assay with RXF 393 is 2.42 µM (inactive); with SF-268, 3.15 µM (inactive); in the assay on SF-295, 2.65 µM (inactive); in the assay with SF-539, 3.28 µM (inactive); in the assay with SNB-75, 3.68 µM (inactive); in the assay on T47D, 2.49 µM (inactive). In the assay with TK-10, the GI50 is 1.92 µM (inactive).
With `CC(=O)NNc1nc(C)c(C(/C=C/c2ccccc2O)=N/N=C(N)N)s1`, the GI50 in the assay on 786-0, with ACHN, in the assay with HT-29, in the assay on IGROV-1, in the assay on KM12 and with LOX IMVI was > 100 µM (inactive) throughout. Also, the GI50 in the assay with M14, in the assay with Malme-3M, in the assay on NCI-H226, in the assay with OVCAR-3, in the assay on OVCAR-4 and with RPMI-8226 was > 100 µM (inactive) each time. Further, the GI50 in the assay with RXF 393, in the assay with SF-268, in the assay with SF-295, in the assay on SF-539, with SNB-75 and in the assay on T47D was > 100 µM (inactive) throughout. Further, the GI50 in the assay on TK-10 is > 100 µM (inactive).
As to `O=[N+]([O-])c1cccc2nc3ccccc3c(NCCCCCNc3c4ccccc4nc4cccc([N+](=O)[O-])c34)c12`, the GI50 is 0.0157 µM (active) in the assay with 786-0; 0.0162 µM (active) in the assay on ACHN; 0.0195 µM (active) with HT-29; 0.202 µM (active) in the assay with IGROV-1; 0.0461 µM (active) with KM12; 0.168 µM (active) in the assay with LOX IMVI. Besides, the GI50 with M14 is 0.0607 µM (active); in the assay on Malme-3M, 0.129 µM (active); in the assay with NCI-H226, 0.245 µM (active); with OVCAR-3, 0.075 µM (active); in the assay with OVCAR-4 it was 0.153 µM (active); with RPMI-8226, 0.00828 µM (active). Moreover, the GI50 in the assay on RXF 393 is 0.0302 µM (active); with SF-268 it was 0.0313 µM (active); in the assay on SF-295, 0.137 µM (active); in the assay with SF-539, 0.0304 µM (active); with SNB-75 it was 0.197 µM (active); with T47D it was 0.179 µM (active). Also, in the assay with TK-10, the GI50 was 0.0242 µM (active).
`Cc1cccc(/N=C/C=C(\Cl)c2ccc3ccccc3c2)c1`: the GI50 with 786-0 is 13.9 µM (inactive); with ACHN, 16.4 µM (inactive); in the assay on HT-29 it was 21.2 µM (inactive); in the assay with IGROV-1, 20.6 µM (inactive); in the assay on KM12, 17.7 µM (inactive); in the assay on LOX IMVI, 2.79 µM (inactive). The GI50 is 17.1 µM (inactive) in the assay on M14; 17.1 µM (inactive) with Malme-3M; 34.1 µM (inactive) in the assay with NCI-H226; 15 µM (inactive) with OVCAR-3; 11.2 µM (inactive) with OVCAR-4; 7.91 µM (inactive) in the assay with RPMI-8226. The GI50 with RXF 393 was 15.6 µM (inactive); with SF-268 it was 22.9 µM (inactive); with SF-295, 32.1 µM (inactive); in the assay with SF-539, 17.8 µM (inactive); with SNB-75 it was > 39.3 µM (inactive); in the assay on T47D, 4.88 µM (inactive). For the same compound, the GI50 in the assay on TK-10 was 19.8 µM (inactive).
As to `Brc1cccc(C2ON=C(c3ccccc3)N2C23CC4CC(CC(C4)C2)C3)c1` (stereo not drawn), the GI50 in the assay on 786-0, with ACHN, with HT-29, in the assay on IGROV-1, in the assay on KM12 and in the assay with LOX IMVI was > 10 µM (inactive) throughout. Further, the GI50 with M14, with Malme-3M, in the assay on NCI-H226, with OVCAR-3, with OVCAR-4 and with RPMI-8226 was > 10 µM (inactive) each time. For the same compound, the GI50 in the assay with RXF 393 was > 10 µM (inactive); in the assay with SF-268 it was > 10 µM (inactive); in the assay on SF-295, > 10 µM (inactive); in the assay with SF-539 it was > 10 µM (inactive); with SNB-75, 6.19 µM (inactive); with T47D, > 10 µM (inactive). In addition, the GI50 with TK-10 was > 10 µM (inactive).
As for `O=C1N/C(=N/N=C\C(O)C(O)C(O)CO)N/C1=C/c1ccc(Cl)cc1` (stereo not drawn), the GI50 in the assay on 786-0 is 53.1 µM (inactive); in the assay with ACHN it was 18.1 µM (inactive) and 17.8 µM (inactive); with HT-29, 44.5 µM (inactive) and 31.8 µM (inactive); with IGROV-1, 30.6 µM (inactive) and 32.9 µM (inactive); with KM12 it was 29.9 µM (inactive) and 37.2 µM (inactive); in the assay on LOX IMVI it was 40.6 µM (inactive) and 35.5 µM (inactive). The GI50 in the assay on M14 is 25.9 µM (inactive); in the assay with Malme-3M, 20.9 µM (inactive) and 17 µM (inactive); with NCI-H226 it was 21 µM (inactive) and 22.2 µM (inactive); in the assay on OVCAR-3 it was 21.6 µM (inactive) and 17.2 µM (inactive); in the assay on OVCAR-4 it was 20.7 µM (inactive); in the assay on RPMI-8226, 33.2 µM (inactive) and 34.4 µM (inactive). The GI50 in the assay with RXF 393 is 92 µM (inactive); in the assay with SF-268, 27 µM (inactive) and 30.3 µM (inactive); with SF-295 it was 41.5 µM (inactive); in the assay on SF-539, 41.5 µM (inactive); in the assay on SNB-75 it was 41.5 µM (inactive) and 32.9 µM (inactive); with T47D it was 34.1 µM (inactive) and 21.9 µM (inactive). For the same compound, the GI50 in the assay with TK-10 was > 100 µM (inactive) and 89.7 µM (inactive).
